The target of one series is T1, nitric oxide synthase (Mus musculus, UniProt P29477).
T1 sequence (P29477 1-1144): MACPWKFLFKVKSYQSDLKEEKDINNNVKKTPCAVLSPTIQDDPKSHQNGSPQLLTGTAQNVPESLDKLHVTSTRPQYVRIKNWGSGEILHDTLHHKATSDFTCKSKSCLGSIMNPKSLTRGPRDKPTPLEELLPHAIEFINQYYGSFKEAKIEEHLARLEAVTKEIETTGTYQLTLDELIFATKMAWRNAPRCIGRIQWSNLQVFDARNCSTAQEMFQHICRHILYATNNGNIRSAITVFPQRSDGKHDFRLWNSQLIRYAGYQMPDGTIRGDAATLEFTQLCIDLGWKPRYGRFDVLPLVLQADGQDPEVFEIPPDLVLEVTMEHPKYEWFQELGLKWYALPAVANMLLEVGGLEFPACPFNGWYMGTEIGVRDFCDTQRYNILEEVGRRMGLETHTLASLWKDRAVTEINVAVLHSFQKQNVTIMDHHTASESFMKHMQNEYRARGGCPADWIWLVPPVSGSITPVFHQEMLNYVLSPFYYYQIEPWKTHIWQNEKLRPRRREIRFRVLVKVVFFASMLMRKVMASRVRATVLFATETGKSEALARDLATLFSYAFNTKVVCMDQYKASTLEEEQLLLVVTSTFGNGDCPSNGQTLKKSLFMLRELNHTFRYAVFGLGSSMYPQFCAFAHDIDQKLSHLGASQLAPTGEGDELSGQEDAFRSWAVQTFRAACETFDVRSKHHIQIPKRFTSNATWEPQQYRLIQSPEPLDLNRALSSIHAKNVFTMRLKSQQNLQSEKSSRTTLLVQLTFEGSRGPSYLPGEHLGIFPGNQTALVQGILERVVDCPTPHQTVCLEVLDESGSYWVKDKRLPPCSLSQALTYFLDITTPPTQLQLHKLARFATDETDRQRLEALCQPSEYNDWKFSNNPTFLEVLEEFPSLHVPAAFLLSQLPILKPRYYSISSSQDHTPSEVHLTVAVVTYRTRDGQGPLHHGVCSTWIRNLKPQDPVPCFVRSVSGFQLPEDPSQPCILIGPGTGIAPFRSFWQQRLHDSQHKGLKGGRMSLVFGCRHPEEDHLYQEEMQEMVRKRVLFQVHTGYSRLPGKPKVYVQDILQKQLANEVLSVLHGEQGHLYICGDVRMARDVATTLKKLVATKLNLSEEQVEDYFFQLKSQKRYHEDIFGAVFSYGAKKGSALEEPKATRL
Briefly: NOS inhibition assay: nitric oxide (nitrite, Greiss reagent) production from PAM 212 keratinocytes stimulated with gamma interferon. The class given is cell-based. Conditions: 100 U/ml gamma interferon, 72 hours, nitrite in medium.

A further series concerns PAM 212 cells. Put plainly: Antiproliferative assay, PAM 212 tumor cells counted with Coulter counter. The class given is cell-based. The conditions noted are these: Mus musculus, PAM212, grown 4 to 5 days, read-out: IC50, concentration inhibiting cell growth by 50%. The source says: The ability of any one of the compounds according to the present invention to inhibit cell growth is recognized by the scientific community to be directly related to its therapeutic potential as an anticancer agent. This type of growth assay can be used with mammalian cancer cells as well as with pathogenic and non-pathogenic microbes, including, but not limited to, yeasts and bacteria. To assay these compounds for anticancer activity, tumor cells (PAM 212) grown in vitro in monolayer culture flasks were used. […] Triplicate wells on the plates were used to measure control growth and growth of the cells in the presence of each concentration of anticancer agent. The cells were then returned to the incubator. […] The cells from each well on the culture dishes were removed by trypsin treatment and counted with a Coulter counter. After a period of time, the number of cells in each well was determined. The data can be presented as a curve showing the inhibition of tumor cell growth with increasing concentrations of the test compound. […] Each of the compounds according to the present invention was a potent inhibitor of cell growth with the IC50 values being typically in the micromolar concentration range.

Molecules are shown by their SMILES. A value given as a limit tells only on which side of the number the result lay.

For the compound `Fc1ccc(-c2nnc3n2N=C(C(F)(F)F)CS3)cc1`, the IC50 on nitric oxide synthase came out at 30 µM.
`CC(CCCl)Sc1nnc(-c2cccs2)n1N` (stereo not drawn) came in with a melting point of 196 to 197 °C.
`O=[N+]([O-])c1ccccc1C=CC=Nn1c(S)nnc1-c1cccs1` [Compound VIIc] had a melting point of 214 to 215 °C. The compound further had an IC50 at nitric oxide synthase of 12 µM. Also, the IC50 in the series on PAM 212 cells came out at 60 µM.
As for `CSc1nnc(C2CCCCC2)n1N=CC(Br)=Cc1ccccc1` [Compound Xi], the IC50 against nitric oxide synthase was 146 µM.
As to `Nn1c(-c2cccs2)n[nH]c1=S` [III (R = 2-thienyl), 4-amino-3-mercapto-5-(2-thienyl)-(4H)-1,2,4-triazole], the IC50 at nitric oxide synthase amounted to 77 µM.
`Nn1c(S)nnc1-c1ccc(F)cc1` [III (R = 4-F—C6H4—)] displayed an IC50 against nitric oxide synthase of 98 µM.
Consider `Brc1ccccc1-c1nnc2n1N=CC=C(c1ccccc1)S2` [IV (R = 2-Br—C6H4—, R′ = H)], for which the IC50 on nitric oxide synthase was 87 µM.
`C1=Nn2c(Cc3ccccc3)nnc2SC(c2ccccc2)=C1` [IV (R = benzyl, R′ = H)] had an IC50 on nitric oxide synthase of 52 µM.
`Fc1ccc(-c2nnc3n2N=CC=C(c2ccccc2)S3)cc1` [IVb] gave a melting point of 217 to 219 °C. This compound also registered an IC50 against nitric oxide synthase of 21 µM.
In turn, `C1=Nn2c(nnc2-c2cccs2)SC(c2ccccc2)=C1` [IVc] yielded a melting point of 164 to 166 °C. Also, the IC50 against nitric oxide synthase is 48 µM.
Consider `CN1C(C=Cc2ccccc2)Sc2nnc(-c3cccs3)n21` (stereo not drawn) [IXa], for which the melting point was in the range of 250 to 252 °C. Also, the IC50 on nitric oxide synthase worked out at 15 µM. The IC50 in the series on PAM 212 cells worked out at 44 µM.
Turning to `CN1C(C=Cc2ccccc2)Sc2nnc(-c3ccco3)n21` (stereo not drawn) [IXd], the melting point was 128 to 129.5 °C. Moreover, at nitric oxide synthase, the IC50 was 14 µM. Moreover, in the series with PAM 212 cells, the IC50 stood at 45 µM.
For `Cc1nnc2n1N(C)C(C=Cc1ccccc1)S2` (stereo not drawn) [IXf], in that order: 125 to 126 °C, 17 µM and greater than 100 µM.
As for `COC(=O)CCSc1nnc(C)n1N` [VI (R = methyl, R′ = —CH2—CH2—COOMe)], on nitric oxide synthase, the IC50 worked out at 170 µM.
As to `Fc1ccc(-c2nnc3n2N=C(c2ccccc2)CS3)cc1` [VIII (R = 4-F—C6H4—, R′ = phenyl)], at nitric oxide synthase, the IC50 was greater than 100 µM.
As for `Cc1nnc2n1N=C(C(F)(F)F)CS2` [VIIIc], the melting point is 85 to 86 °C. The same compound came in with an IC50 at nitric oxide synthase greater than 100 µM.
As for `Sc1nnc(-c2cccs2)n1N=CC=Cc1ccccc1` [VIIa, 4-imino-(cinnamyl)-3-mercapto-5-(2-thienyl)-4H-1,2,4-triazole], the melting point was in the range of 206 to 206.5 °C. This compound also displayed an IC50 on nitric oxide synthase of 35 µM.
For `COc1ccccc1C=CC=Nn1c(S)nnc1-c1cccs1` [VIIb], in that order: 227 to 228 °C and greater than 100 µM.
Take `Oc1cccc(C=Nn2c(S)nnc2-c2cccnc2)c1O` [VIIr]: the IC50 at nitric oxide synthase was 29 µM.
Regarding `CC(CC(=O)Oc1ccccc1)Sc1nnc(-c2cccs2)n1N` (stereo not drawn) [VIb], the melting point lay within 109.5 to 111 °C. Moreover, at nitric oxide synthase, the IC50 is greater than 100 µM.
Turning to `C1=C(c2ccccc2)Sc2nnc(-c3ccccc3)n2NC1` [Va], the melting point fell in the range of 222 to 223 °C. In addition, the IC50 against nitric oxide synthase amounted to 110 µM.

Values taken from patent US20020032325A1, “4-amino-3-mercapto-1,2,4-triazoles” (priority 1999, published 2002).
